In ChEMBL document CHEMBL4219190, “Studies on synthesis of novel pyrido[2,3-d]pyrimidine derivatives, evaluation of their antimicrobial activity and molecular docking” (Bioorg Med Chem Lett, 2018):
≈ marks a conversion by molar mass, not a printed value. Calls of active or inactive are those of the source. The calls are words filed in the database; no cut-off is given here.

Legend:
Bacillus subtilis [1] = assay: Bactericidal activity against Bacillus subtilis MTCC 121 incubated for 24 hrs followed by transfer of microbial suspension to Mueller Hinton agar plates and measured after 24 hrs post transfer; format: functional
Bacillus subtilis [2] = assay: Antibacterial activity against Bacillus subtilis MTCC 121 after 24 hrs by well diffusion method; format: functional
Staphylococcus aureus [3] = assay: Antibacterial activity against Staphylococcus aureus MTCC 96 after 24 hrs by well diffusion method; format: functional; settings: MTCC 96, 24 h
Staphylococcus aureus [4] = assay: Antibacterial activity against Staphylococcus aureus MLS16 MTCC 2940 after 24 hrs by well diffusion method; format: functional
Micrococcus luteus [5] = assay: Antibacterial activity against Micrococcus luteus MTCC 2470 after 24 hrs by well diffusion method; format: functional
Raoultella planticola [6] = assay: Antibacterial activity against Klebsiella planticola MTCC 530 after 24 hrs by well diffusion method; format: functional
Escherichia coli [7] = assay: Antibacterial activity against Escherichia coli MTCC 739 after 24 hrs by well diffusion method; format: functional
Pseudomonas aeruginosa [8] = assay: Antibacterial activity against Pseudomonas aeruginosa MTCC 2453 after 24 hrs by well diffusion method; format: functional
Staphylococcus aureus [9] = assay: Bactericidal activity against Staphylococcus aureus MTCC 96 incubated for 24 hrs followed by transfer of microbial suspension to Mueller Hinton agar plates and measured after 24 hrs post transfer; format: functional; settings: MTCC 96, 24 h
Staphylococcus aureus [10] = assay: Bactericidal activity against Staphylococcus aureus MLS16 MTCC 2940 incubated for 24 hrs followed by transfer of microbial suspension to Mueller Hinton agar plates and measured after 24 hrs post transfer; format: functional
Micrococcus luteus [11] = assay: Bactericidal activity against Micrococcus luteus MTCC 2470 incubated for 24 hrs followed by transfer of microbial suspension to Mueller Hinton agar plates and measured after 24 hrs post transfer; format: functional
Raoultella planticola [12] = assay: Bactericidal activity against Klebsiella planticola MTCC 530 incubated for 24 hrs followed by transfer of microbial suspension to Mueller Hinton agar plates and measured after 24 hrs post transfer; format: functional
Escherichia coli [13] = assay: Bactericidal activity against Escherichia coli MTCC 739 incubated for 24 hrs followed by transfer of microbial suspension to Mueller Hinton agar plates and measured after 24 hrs post transfer; format: functional
Pseudomonas aeruginosa [14] = assay: Bactericidal activity against Pseudomonas aeruginosa MTCC 2453 incubated for 24 hrs followed by transfer of microbial suspension to Mueller Hinton agar plates and measured after 24 hrs post transfer; format: functional
Candida albicans [15] = assay: Antifungal activity against Candida albicans MTCC 183 after 24 hrs by well diffusion method; format: functional; settings: MTCC 183, 24 h
Candida albicans [16] = assay: Antifungal activity against Candida albicans MTCC 227 after 24 hrs by well diffusion method; format: functional
Candida albicans [17] = assay: Antifungal activity against Candida albicans MTCC 854 after 24 hrs by well diffusion method; format: functional
Candida albicans [18] = assay: Antifungal activity against Candida albicans MTCC 1637 after 24 hrs by well diffusion method; format: functional
Candida albicans [19] = assay: Antifungal activity against Candida albicans MTCC 3018 after 24 hrs by well diffusion method; format: functional
Candida albicans [20] = assay: Antifungal activity against Candida albicans MTCC 3017 after 24 hrs by well diffusion method; format: functional; settings: MTCC 3017, 24 h
Candida albicans [21] = assay: Antifungal activity against Candida albicans MTCC 3958 after 24 hrs by well diffusion method; format: functional
Candida albicans [22] = assay: Antifungal activity against Candida albicans MTCC 4748 after 24 hrs by well diffusion method; format: functional; settings: MTCC 4748, 24 h
Candida albicans [23] = assay: Antifungal activity against Candida albicans MTCC 7315 after 24 hrs by well diffusion method; format: functional; settings: MTCC 7315, 24 h
Candida parapsilosis [24] = assay: Antifungal activity against Candida parapsilosis MTCC 1744 after 24 hrs by well diffusion method; format: functional; settings: MTCC 1744, 24 h
[Candida] aaseri [25] = Antifungal activity against Candida aaseri MTCC 1962 after 24 hrs by well diffusion method; format: functional; settings: Yamadazyma aaseri, MTCC 1962, 24 h
Nakaseomyces glabratus [26] = assay: Antifungal activity against Candida glabrata MTCC 3019 after 24 hrs by well diffusion method; format: functional; settings: MTCC 3019, 24 h
Pichia kudriavzevii [27] = assay: Antifungal activity against Candida krusei MTCC 3020 after 24 hrs by well diffusion method; format: functional; settings: MTCC 3020, 24 h
Pichia sporocuriosa [28] = assay: Antifungal activity against Issatchenkia hanoiensis MTCC 4755 after 24 hrs by well diffusion method; format: functional; settings: MTCC 4755, 24 h
Candida albicans [29] = assay: Fungicidal activity against Candida albicans MTCC 183 incubated for 24 hrs followed by transfer of microbial suspension to Sabouraud dextrose agar plates and measured after 24 hrs post transfer; format: functional; settings: MTCC 183, 24 h
Candida albicans [30] = assay: Fungicidal activity against Candida albicans MTCC 227 incubated for 24 hrs followed by transfer of microbial suspension to Sabouraud dextrose agar plates and measured after 24 hrs post transfer; format: functional
Candida albicans [31] = assay: Fungicidal activity against Candida albicans MTCC 854 incubated for 24 hrs followed by transfer of microbial suspension to Sabouraud dextrose agar plates and measured after 24 hrs post transfer; format: functional
Candida albicans [32] = assay: Fungicidal activity against Candida albicans MTCC 1637 incubated for 24 hrs followed by transfer of microbial suspension to Sabouraud dextrose agar plates and measured after 24 hrs post transfer; format: functional
Candida albicans [33] = assay: Fungicidal activity against Candida albicans MTCC 3017 incubated for 24 hrs followed by transfer of microbial suspension to Sabouraud dextrose agar plates and measured after 24 hrs post transfer; format: functional; settings: MTCC 3017, 24 h
Candida albicans [34] = assay: Fungicidal activity against Candida albicans MTCC 3018 incubated for 24 hrs followed by transfer of microbial suspension to Sabouraud dextrose agar plates and measured after 24 hrs post transfer; format: functional
Candida albicans [35] = assay: Fungicidal activity against Candida albicans MTCC 3958 incubated for 24 hrs followed by transfer of microbial suspension to Sabouraud dextrose agar plates and measured after 24 hrs post transfer; format: functional
Candida albicans [36] = assay: Fungicidal activity against Candida albicans MTCC 4748 incubated for 24 hrs followed by transfer of microbial suspension to Sabouraud dextrose agar plates and measured after 24 hrs post transfer; format: functional; settings: MTCC 4748, 24 h
Candida albicans [37] = assay: Fungicidal activity against Candida albicans MTCC 7315 incubated for 24 hrs followed by transfer of microbial suspension to Sabouraud dextrose agar plates and measured after 24 hrs post transfer; format: functional; settings: MTCC 7315, 24 h
Candida parapsilosis [38] = assay: Fungicidal activity against Candida parapsilosis MTCC 1744 incubated for 24 hrs followed by transfer of microbial suspension to Sabouraud dextrose agar plates and measured after 24 hrs post transfer; format: functional; settings: Lodderomyces parapsilosis, MTCC 1744, 24 h
[Candida] aaseri [39] = Fungicidal activity against Candida aaseri MTCC 1962 incubated for 24 hrs followed by transfer of microbial suspension to Sabouraud dextrose agar plates and measured after 24 hrs post transfer; format: functional; settings: Yamadazyma aaseri, MTCC 1962, 24 h
Nakaseomyces glabratus [40] = assay: Fungicidal activity against Candida glabrata MTCC 3019 incubated for 24 hrs followed by transfer of microbial suspension to Sabouraud dextrose agar plates and measured after 24 hrs post transfer; format: functional; settings: MTCC 3019, 24 h
Pichia kudriavzevii [41] = assay: Fungicidal activity against Candida krusei MTCC 3020 incubated for 24 hrs followed by transfer of microbial suspension to Sabouraud dextrose agar plates and measured after 24 hrs post transfer; format: functional; settings: MTCC 3020, 24 h
Pichia sporocuriosa [42] = assay: Fungicidal activity against Issatchenkia hanoiensis MTCC 4755 incubated for 24 hrs followed by transfer of microbial suspension to Sabouraud dextrose agar plates and measured after 24 hrs post transfer; format: functional; settings: MTCC 4755, 24 h
Bacillus subtilis [43] = assay: Antibiofilm activity against Bacillus subtilis MTCC 121 after 24 hrs by crystal violet staining-based assay; format: functional, organism-based
Staphylococcus aureus [44] = assay: Antibiofilm activity against Staphylococcus aureus MTCC 96 after 24 hrs by crystal violet staining-based assay; format: functional, organism-based; settings: Staphylococcus aureus, MTCC 96, 24 h; read-out: IC50
Staphylococcus aureus [45] = assay: Antibiofilm activity against Staphylococcus aureus MLS16 MTCC 2940 after 24 hrs by crystal violet staining-based assay; format: functional, organism-based
Pseudomonas aeruginosa [46] = assay: Antibiofilm activity against Pseudomonas aeruginosa MTCC 2453 after 24 hrs by crystal violet staining-based assay; format: functional, organism-based
Raoultella planticola [47] = assay: Antibiofilm activity against Klebsiella planticola MTCC 530 after 24 hrs by crystal violet staining-based assay; format: functional, organism-based

MIC (Bacillus subtilis [2]): inactive
MIC (Staphylococcus aureus [3]): 31.2 µg/mL (≈ 64.4 µM)
MIC (Staphylococcus aureus [4]): inactive
MIC (Micrococcus luteus [5]): inactive
MIC (Escherichia coli [7]): inactive
MIC (Pseudomonas aeruginosa [8]): inactive
MIC (Candida albicans [15]): 31.2 µg/mL (≈ 64.4 µM)
MIC (Candida albicans [16]): inactive
MIC (Candida albicans [17]): inactive
MIC (Candida albicans [18]): inactive
MIC (Candida albicans [19]): inactive
MIC (Candida albicans [20]): 31.2 µg/mL (≈ 64.4 µM)
MIC (Candida albicans [21]): inactive
MIC (Candida albicans [22]): 62.5 µg/mL (≈ 129 µM)
MIC (Candida albicans [23]): 62.5 µg/mL (≈ 129 µM)
MIC (Candida parapsilosis [24]): 31.2 µg/mL (≈ 64.4 µM)
MIC ([Candida] aaseri [25]): 31.2 µg/mL (≈ 64.4 µM)
MIC (Nakaseomyces glabratus [26]): 15.6 µg/mL (≈ 32.2 µM)
MIC (Pichia kudriavzevii [27]): 15.6 µg/mL (≈ 32.2 µM)
MIC (Pichia sporocuriosa [28]): 31.2 µg/mL (≈ 64.4 µM)
IC50 (Bacillus subtilis [43]): Not Active
IC50 (Staphylococcus aureus [44]): 21.6 µg/mL (≈ 44.6 µM)
IC50 (Staphylococcus aureus [45]): Not Active
IC50 (Pseudomonas aeruginosa [46]): Not Active
SMILES: O=C(NCc1ccccc1)c1nc(-c2ccccc2)c2c(C(F)(F)F)cc(-c3ccccc3)nc2n1
MBC (Bacillus subtilis [1]): inactive
MIC (Raoultella planticola [6]): inactive
MBC (Staphylococcus aureus [9]): 31.2 µg/mL (≈ 64.4 µM)
MBC (Staphylococcus aureus [10]): inactive
MBC (Micrococcus luteus [11]): inactive
MBC (Raoultella planticola [12]): inactive
MBC (Escherichia coli [13]): inactive
MBC (Pseudomonas aeruginosa [14]): inactive
MFC (Candida albicans [29]): 62.5 µg/mL (≈ 129 µM)
MFC (Candida albicans [30]): inactive
MFC (Candida albicans [31]): inactive
MFC (Candida albicans [32]): inactive
MFC (Candida albicans [33]): 62.5 µg/mL (≈ 129 µM)
MFC (Candida albicans [34]): inactive
MFC (Candida albicans [35]): inactive
MFC (Candida albicans [36]): 62.5 µg/mL (≈ 129 µM)
MFC (Candida albicans [37]): 62.5 µg/mL (≈ 129 µM)
MFC (Candida parapsilosis [38]): 62.5 µg/mL (≈ 129 µM)
MFC ([Candida] aaseri [39]): 62.5 µg/mL (≈ 129 µM)
MFC (Nakaseomyces glabratus [40]): 31.2 µg/mL (≈ 64.4 µM)
MFC (Pichia kudriavzevii [41]): 31.2 µg/mL (≈ 64.4 µM)
MFC (Pichia sporocuriosa [42]): 62.5 µg/mL (≈ 129 µM)
IC50 (Raoultella planticola [47]): Not Active
